Experimental data reported in US12077483B2, “Modified amine lipids” (Intellia Therapeutics, Inc., priority 2018, dated 2024).
Where “and” joins values, the source holds several entries; their conditions need not be identical. Identical values can stand only once. Each block holds one compound with its values, some of them ahead of it.

Key:
[1] = pKa of amine lipid by TNS fluorescence; format: physicochemical; conditions: probe TNS (6-(p-toluidino)-2-naphthalenesulfonic acid sodium salt), unformulated amine lipid in ethanol, sodium phosphate buffers -9.0
Procedure, shortened: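 Unformulated amine lipid, about 100 μM final, in 0.1 M sodium phosphate buffers spanning pH 4.5–9.0 with TNS. Fluorescence read at ex 321/em 448 nm; normalized data fitted sigmoidally to give pKa.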

[2] = RNA encapsulation efficiency of LNP (Ribogreen fluorescence assay); format: physicochemical; conditions: for % E: Table 13, LNP sgRNA:Cas9 mRNA 1:2 w/w
Procedure, shortened: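 LNP samples diluted in 1× TE with or without 0.2% Triton-X 100 for total or free RNA, stained ~10 min at room temperature in the dark with RiboGreen; fluorescence ex 488/em 525 nm against RNA standard curves. Encapsulation efficiency = (Total RNA−Free RNA)/Total RNA.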

[3] = LNP average particle size and polydispersity by dynamic light scattering; format: physicochemical
Procedure, shortened: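 LNPs were diluted in PBS to a count rate of about 200-400 kcps and measured by DLS on a Zetasizer. Size is the intensity-weighted Z-average diameter, reported with number-average diameter, and the polydispersity index describes the spread of sizes around the mean.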

[4] = test system: mouse TTR; assay: Serum TTR ELISA in mice after LNP delivery; format: in vivo
Procedure, shortened: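 Female CD-1 mice received LNP at 0.1 mpk unless noted; serum was collected 6 or 7 days later. Total serum TTR was measured by mouse prealbumin ELISA at 10,000- and/or 2,500-fold dilution and is expressed as a percentage of vehicle control.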

[5] = LNP with the compound as amine lipid, Expt. 3, composition ratio (mol %) 50/9/38/3 for Cmpnd 49, 50/10/38.5/1.5 for the others
[6] = LNP with the compound as amine lipid, Expt. 5, composition ratio (mol %) 50/10/38.5/1.5
[7] = LNP with the compound as amine lipid, Expt. 9, composition ratio (mol %) 50/9/38/3 for Cmpnd 49, 50/10/38.5/1.5 for the others
[8] = Table 10, LNP with G00534 sgRNA:Cas9 mRNA 1:2 w/w
[9] = Table 13, LNP sgRNA:Cas9 mRNA 1:2 w/w, N/P 6.0
[10] = LNP with the compound as amine lipid, Expt. 1, composition ratio (mol %) 50/9/38/3 for Cmpnd 49, 50/10/38.5/1.5 for the others
[11] = Table 3, guide G282, CD-1 female mice, 0.1 mpk i.v., Exp. 1, 8, 9, 10
[12] = Table 3, guide G282, CD-1 female mice, 0.1 mpk i.v., percentage of vehicle control (TSS)
[13] = mouse serum, relative to TSS control of same experiment, dose 0.1 mpk
[14] = Table 6, LNP with G00282 sgRNA:Cas9 mRNA 1:1 w/w
[15] = Table 7, G00282, CD-1 female mice i.v., dose 0.1 mpk
[16] = Table 7, G00282, CD-1 female mice i.v., dose 0.1 mpk, percentage of vehicle control
[17] = Table 7, G00282, CD-1 female mice i.v., dose 0.3 mpk
[18] = Table 7, G00282, CD-1 female mice i.v., dose 0.3 mpk, percentage of vehicle control
[19] = LNP with the compound as amine lipid, Expt. 4, composition ratio (mol %) 50/9/38/3 for Cmpnd 49, 50/10/38.5/1.5 for the others
[20] = Table 4, LNP with G00282 sgRNA:Cas9 mRNA 1:1 w/w, N/P 6.0
[21] = mouse serum, relative to TSS control of same experiment, dose 0.03 mpk
[22] = LNP with the compound as amine lipid, Expt. 8, composition ratio (mol %) 50/9/38/3 for Cmpnd 49, 50/10/38.5/1.5 for the others
[23] = LNP with the compound as amine lipid, Expt. 2, composition ratio (mol %) 50/9/39.5/3 for Cmpnd 49, 50/9/39.5/1.5 for the others
[24] = LNP with the compound as amine lipid, Expt. 6, composition ratio (mol %) 50/9/38/3 for Cmpnd 49, 50/10/38.5/1.5 for the others
[25] = LNP with the compound as amine lipid, Expt. 7, composition ratio (mol %) 50/9/38/3 for Cmpnd 49, 50/10/38.5/1.5 for the others
[26] = LNP with the compound as amine lipid, Expt. 10, composition ratio (mol %) 50/9/38/3 for Cmpnd 49, 50/10/38.5/1.5 for the others

Compound: CCCCC/C=C\C/C=C\CCCCCCCC(=O)OCC(COC(=O)CCCCCCC/C=C\C/C=C\CCCCC)OC(=O)CCC(CCCCCCCCCCCC)OC(=O)OCCCN(C)C (centres unmarked) [Compound 1, 2-((4-(((3-(dimethylamino)propoxy)carbonyl)oxy)hexadecanoyl)oxy)propane-1,3-diyl (9Z,9′Z,12Z,12′Z)-bis(octadeca-9,12-dienoate)]
pKa [1]: 6.35
Encapsulation (%) [2, 10]: 99%
Num Ave Size (nm) [3, 10]: 54.84 nm
PDI [3, 10]: 0.04
Z-Ave Size (nm) [3, 10]: 68.63 nm
Serum TTR [4, 11]: 671 µg/mL
Serum TTR % TSS [4, 12]: 76% TSS
Serum TTR % TSS [4, 13]: 48.49 % TSS

Compound: CCCCC/C=C\C/C=C\CCCCCCCC(=O)OCC(COC(=O)CCCCCCC/C=C\C/C=C\CCCCC)OC(=O)CCC(CCCCCCCCCCCC)OC(=O)OCCCN1CCCC1 (centres unmarked) [Compound 5, 2-((4-(((3-(pyrrolidin-1-yl)propoxy)carbonyl)oxy)hexadecanoyl)oxy)propane-1,3-diyl (9Z,9′Z,12Z,12′Z)-bis(octadeca-9,12-dienoate)]
pKa [1]: 6.25
Encapsulation (%) [2, 14]: 99%
Num Ave Size (nm) [3, 14]: 62.64 nm
PDI [3, 14]: 0.009
Z-Ave Size (nm) [3, 14]: 76.02 nm
Serum TTR [4, 15]: 549 µg/mL
Serum TTR % TSS [4, 16]: 67% TSS
Serum TTR [4, 17]: 233 µg/mL
Serum TTR % TSS [4, 18]: 28% TSS

Compound: CCCCC/C=C\C/C=C\CCCCCCCC(=O)OCC(COC(=O)CCCCCCC/C=C\C/C=C\CCCCC)OC(=O)CCC(CCCCCCCCCCCC)OC(=O)NCCN(C)CC (centres unmarked) [Compound 7, 2-((4-(((2-(ethyl(methyl)amino)ethyl)carbamoyl)oxy)hexadecanoyl)oxy)propane-1,3-diyl (9Z,9′Z,12Z,12′Z)-bis(octadeca-9,12-dienoate)]
pKa [1]: 6.36
Encapsulation (%) [2, 19]: 98%
Encapsulation (%) [2, 20]: 97%
Num Ave Size (nm) [3, 19]: 73.07 nm
PDI [3, 19]: 0.002
Z-Ave Size (nm) [3, 19]: 87.61 nm
Num Ave Size (nm) [3, 20]: 68.39 nm
PDI [3, 20]: 0.033
Z-Ave Size (nm) [3, 20]: 85.09 nm
Serum TTR ([4]; Table 3, guide G282, CD-1 female mice, 0.1 mpk i.v., Exp. 1, 8, 9, 10, 0.1 mg/kg): 270 µg/mL and 271 µg/mL
Serum TTR % TSS ([4]; Table 3, guide G282, CD-1 female mice, 0.1 mpk i.v., percentage of vehicle control (TSS), 0.1 mg/kg): 31% TSS and 33% TSS
Serum TTR % TSS [4, 21]: 58% TSS
Serum TTR % TSS [4, 13]: 10% TSS

Second part, led by results:

pKa [1]: 6.5
Encapsulation (%) [2, 5]: 98%
Encapsulation (%) [2, 6]: 98%
Encapsulation (%) [2, 7]: 97%
Encapsulation (%) [2, 8]: 87%
% E ([2]; N/P 6.0): 97%
Num Ave Size (nm) [3, 5]: 76.57 nm
PDI [3, 5]: 0.02
Z-Ave Size (nm) [3, 5]: 94.33 nm
Num Ave Size (nm) [3, 6]: 77 nm
PDI [3, 6]: 0.06
Z-Ave Size (nm) [3, 6]: 103.00 nm
Num Ave Size (nm) [3, 7]: 78 nm
PDI [3, 7]: 0.04
Z-Ave Size (nm) [3, 7]: 98 nm
Num Avg Size (nm) [3, 8]: 79.18 nm
PDI [3, 8]: 0.050
Z-Avg Size (nm) [3, 8]: 98.55 nm
Number Average [nm] [3, 9]: 84.16 nm
PDI [3, 9]: 0.021
Z-Ave Size (nm) [3, 9]: 102.8 nm
Compound: CCCCC/C=C\C/C=C\CCCCCCCC(=O)OCC(COC(=O)CCCCCCC/C=C\C/C=C\CCCCC)OC(=O)CCC(CCCCCC)OC(=O)NCCN1CCCC1 (racemic) [Compound 50, 2-((4-(((2-(pyrrolidin-1-yl)ethyl)carbamoyl)oxy)decanoyl)oxy)propane-1,3-diyl (9Z,9′Z,12Z,12′Z)-bis(octadeca-9,12-dienoate)]
Serum TTR % TSS ([4]; mouse serum, relative to TSS control of same experiment, dose 0.03 mpk, 0.03 mg/kg): 71.3 % TSS and 45.51 % TSS and 70.1 % TSS

pKa [1]: 6.32
Encapsulation (%) [2, 22]: 98%
Encapsulation (%) [2, 20]: 97%
Num Ave Size (nm) [3, 22]: 48.82 nm
PDI [3, 22]: 0.074
Z-Ave Size (nm) [3, 22]: 64.83 nm
Num Ave Size (nm) [3, 20]: 59.99 nm
PDI [3, 20]: 0.033
Z-Ave Size (nm) [3, 20]: 74.83 nm
Compound: CCCCC/C=C\C/C=C\CCCCCCCC(=O)OCC(COC(=O)CCCCCCC/C=C\C/C=C\CCCCC)OC(=O)CCC(CCCCCCCCCCCC)OC(=O)NCC1CCCN1C (centres unmarked) [Compound 9, 2-((4-((((1-methylpyrrolidin-2-yl)methyl)carbamoyl)oxy)hexadecanoyl)oxy) propane-1,3-diyl (9Z,9′Z,12Z,12′Z)-bis(octadeca-9,12-dienoate)]
Serum TTR [4, 11]: 339 µg/mL
Serum TTR % TSS [4, 12]: 38% TSS
Serum TTR % TSS [4, 21]: 114.02 % TSS
Serum TTR % TSS [4, 13]: 103.19 % TSS

Encapsulation (%) [2, 10]: 98%
Encapsulation (%) [2, 23]: 98%
Encapsulation (%) [2, 5]: 93%
Encapsulation (%) [2, 19]: 98%
Encapsulation (%) [2, 6]: 98%
Encapsulation (%) [2, 24]: 99%
Encapsulation (%) [2, 25]: 93%
Encapsulation (%) [2, 22]: 98%
Encapsulation (%) [2, 7]: 98%
Encapsulation (%) [2, 26]: 98%
Encapsulation (%) [2, 20]: 98%
Encapsulation (%) [2, 14]: 99%
Encapsulation (%) [2, 8]: 97%
% E ([2]; N/P 6.0): 98%
Num Ave Size (nm) [3, 10]: 69.84 nm
PDI [3, 10]: 0.05
Z-Ave Size (nm) [3, 10]: 87.92 nm
Num Ave Size (nm) [3, 23]: 73.13 nm
PDI [3, 23]: 0.014
Z-Ave Size (nm) [3, 23]: 88.36 nm
Num Ave Size (nm) [3, 5]: 63.19 nm
PDI [3, 5]: 0.03
Z-Ave Size (nm) [3, 5]: 77.07 nm
Num Ave Size (nm) [3, 19]: 66.26 nm
PDI [3, 19]: 0.026
Z-Ave Size (nm) [3, 19]: 81.83 nm
Num Ave Size (nm) [3, 6]: 65 nm
PDI [3, 6]: 0.03
Z-Ave Size (nm) [3, 6]: 83.00 nm
Num Ave Size (nm) [3, 24]: 74 nm
PDI [3, 24]: 0.02
Z-Ave Size (nm) [3, 24]: 90.00 nm
Num Ave Size (nm) [3, 25]: 63.19 nm
PDI [3, 25]: 0.026
Z-Ave Size (nm) [3, 25]: 77.07 nm
Num Ave Size (nm) [3, 22]: 69.01 nm
PDI [3, 22]: 0.026
Z-Ave Size (nm) [3, 22]: 84.47 nm
Num Ave Size (nm) [3, 7]: 70 nm
PDI [3, 7]: 0.04
Z-Ave Size (nm) [3, 7]: 87 nm
Num Ave Size (nm) [3, 26]: 75 nm
PDI [3, 26]: 0.04
Z-Ave Size (nm) [3, 26]: 90 nm
Num Ave Size (nm) [3, 20]: 69.51 nm
PDI [3, 20]: 0.007
Z-Ave Size (nm) [3, 20]: 84.93 nm
Num Ave Size (nm) [3, 14]: 69.75 nm
PDI [3, 14]: 0.011
Z-Ave Size (nm) [3, 14]: 83.63 nm
Num Avg Size (nm) [3, 8]: 69.85 nm
PDI [3, 8]: 0.028
Z-Avg Size (nm) [3, 8]: 87.84 nm
Number Average [nm] [3, 9]: 74.82 nm
PDI [3, 9]: 0.015
Z-Ave Size (nm) [3, 9]: 93.14 nm
Compound: CCCCC/C=C\C/C=C\CCCCCCCC(=O)OCC(COC(=O)CCC(OCCCCCCCC)OCCCCCCCC)COC(=O)OCCCN(CC)CC (centres unmarked) [Compound 49, 3-((4,4-bis(octyloxy)butanoyl)oxy)-2-((((3-(diethylamino)propoxy)carbonyl)oxy)methyl)propyl (9Z,12Z)-octadeca-9,12-dienoate, reference compound]
Serum TTR [4, 15]: 254 µg/mL
Serum TTR % TSS [4, 16]: 31% TSS
Serum TTR [4, 17]: 40 µg/mL
Serum TTR % TSS [4, 18]: 5% TSS
